Literature values, collected in PubChem BioAssay AID1259409 (Chemical Carcinogenesis Research Information System (CCRIS), 2018).

System: rodent chemically induced tumor inhibition, incidence and multiplicity
Assay: CCRIS tumor inhibitor studies
Details: Carcinogen: DIETHYLNITROSAMINE, 55-18-5, N-METHYL-N-NITROSOUREA, 684-93-5, N-BUTYL-N-(4-HYDROXYBUTYL)NITROSAMINE, 3817-11-6, DIMETHY, Carcinogen: DIETHYLNITROSAMINE, 55-18-5, N-METHYL-N-NITROSOUREA, 684-93-5, N-BUTYL-N-(4-HYDROXYBUTYL)NITROSAMINE, 3817-11-6, DIMETHY, Dose [Inhibitor]: 0, Route [Inhibitor]: ORAL, Species: RAT, Strain/Sex: F344/MALE, Dose [Carcinogen]: 100 MG/KG BW DEN ONCE FOLLOWED BY 20 MG/KG BW MNU 4 TIMES AND 0.05% BBN IN DRINKING WATER DURING FIRST 2 WK THEN 40 MG/K, Promoter: NONE USED

CCOC1=C(O)C(=O)O[C@@H]1[C@@H](O)CO
tumour outcome (control, treated, inhibition, significance) (1% IN THE DIET FOR 24 WK BEGINNING 1 DAY POST CARCINOGEN TREATMENT (STUDY DURATION: 28 WK), Target Tissue: Type of Lesion: URINARY BLADDER: PAPILLOMA): 7%, 7%, 0%, not significant
tumour outcome (control, treated, inhibition, significance) (1% IN THE DIET FOR 30 D BEGINNING 1 DAY PRIOR TO CARCINOGEN TREATMENT (STUDY DURATION: 28 WK), Target Tissue: Type of Lesion: LARGE INTESTINE: ADENOMA): 27%, 33%, -22%, not significant
tumour outcome (control, treated, inhibition, significance) (1% IN THE DIET FOR 30 D BEGINNING 1 DAY PRIOR TO CARCINOGEN TREATMENT (STUDY DURATION: 28 WK), Target Tissue: Type of Lesion: LARGE INTESTINE: CARCINOMA): 7%, 40%, -471%, not significant
tumour outcome (control, treated, inhibition, significance) (1% IN THE DIET FOR 30 D BEGINNING 1 DAY PRIOR TO CARCINOGEN TREATMENT (STUDY DURATION: 28 WK), Target Tissue: Type of Lesion: SMALL INTESTINE: ADENOMA): 33%, 7%, 79%, not significant
tumour outcome (control, treated, inhibition, significance) (1% IN THE DIET FOR 30 D BEGINNING 1 DAY PRIOR TO CARCINOGEN TREATMENT (STUDY DURATION: 28 WK), Target Tissue: Type of Lesion: SMALL INTESTINE: CARCINOMA): 7%, 7%, 0%, not significant
tumour outcome (control, treated, inhibition, significance) (1% IN THE DIET FOR 30 D BEGINNING 1 DAY PRIOR TO CARCINOGEN TREATMENT (STUDY DURATION: 28 WK), Target Tissue: Type of Lesion: THYROID: CARCINOMA): 7%, 0%, 100%, not significant
tumour outcome (control, treated, inhibition, significance) (1% IN THE DIET FOR 30 DAYS BEGINNING 1 DAY PRIOR TO CARCINOGEN TREATMENT (STUDY DURATION: 28 WK), Target Tissue: Type of Lesion: URINARY BLADDER: CARCINOMA): 7%, 7%, 0%, not significant
tumour outcome (control, treated, inhibition, significance) (1% IN THE DRINKING WATER FOR 24 WK BEGINNING 1 DAY POST CARCINOGEN TREATMENT (STUDY DURATION: 28 WK), Target Tissue: Type of Lesion: SMALL INTESTINE: CARCINOMA): 7%, 0%, 100%, not significant
